Results on seven compounds are retold here after patent US20040034216A1, “3-Nitrogen-6,7-dioxygen steroids and uses related thereto” (priority 2003, published 2004).

SMILES strings stand for the structures. Some results are limits rather than exact numbers.

Data set [1] deals with Rat Mast Cell Line (RBL-2H3). The data set is described as follows: Antigen-induced release of hexosaminidase from a rat mast cell line (RBL-2H3). The data set is classed as cell-based. As to conditions: Rattus norvegicus, RBL-2H3, inhibition of antigen (DNP-HSA)-induced hexosaminidase release, tested at 0.3, 3, 10 and 30 μM, read-out: Hex IC50. The procedure:
The anti-allergic effects of a compound of the present invention was evaluated by measuring its effect on antigen-induced secretion of hexosaminidase from a passively sensitized rat mast cell line. The ability of a test compound to inhibit the release of mast cell granule contents, e.g., histamine and hexosaminidase, is indicative of the anti-allergy and/or anti-asthma activity of the compound. Hexosaminidase is released from the mast cell granule along with histamine and other mediators during antigen challenge. The test is performed as follows.
RBL-2H3 cells are grown in culture and passively sensitized for 1 hour at 37° C. to dinitrophenol (DNP) using anti-human-DNP (IgE). Cells are incubated with test compound for 30 minutes at 37° C. and stimulated with 0.5 μg/ml DNP-HSA (antigen) for 30 minutes. Aliquots of the supernatant are removed and used to measure the amount of hexosaminidase released during challenge with the antigen. The amount of hexosaminidase present in the supernatant is determined colorimetrically by monitoring the enzymatic metabolism of p-nitrophenyl-N-acetyl-β-D-glucosaminide (p-NAG) over a period of 60 minutes at 405 nm. The effect of each test compound is determined as a percentage of the antigen-induced response (minus background release) obtained in the presence of DMSO alone. These values are used to determine the degrees of inhibition of antigen-induced hexosaminidase release from the cells.

The next data set deals with Jurkat clone E6.1 cells. The data set is described as follows: Antigen-induced calcium flux in anti-CD3 stimulated Jurkat cells (Fura 2AM). The data set is classed as cell-based. The settings on record: Homo sapiens, Jurkat, read-out: Calcium (% inhibition at 20 μM), 20 μM; anti-CD3 mAb stimulated Jurkat clone E6.1 cells. From the text: Elevation of cytoplasmic calcium concentration is a common and crucial event which follows the activation of many types of cell surface receptors. Increases in intracellular calcium that occur following agonist activation of inositol lipid hydrolysis are the results of calcium release from the endoplasmic reticulum and the influx of calcium through the plasma membrane. Increases in cytosolic calcium concentration are involved in many important cellular responses in the inflammatory process including adhesion, motility, gene expression, proliferation, and degranulation. Changes in intracellular calcium concentrations can affect both short and long term cellular responses. An assay method to evaluate a test compound's impact on calcium flux is provided as follows.
The resulting supernatants are discarded and each pellet is washed in 10 mL HBSS. Cell suspensions are accumulated and centrifuged for 5 minutes at 900 RPM to form a cell pellet. The resulting supernatant is discarded and the pellet is resuspended in HBSS at 1×10^7cells/mL. The cell suspension is transferred to a 20 mm petri dish and incubated at 37° C., 5% CO2 for 20 minutes.
One volume of Fura 2AM is mixed to one volume of detergent Pluronic F127. Cells are labeled with 4 μL of probe solution to each mL of cell suspension. The petri dish is wrapped in aluminum foil to protect from light and placed on a plate shaker for 30 minutes at room temperature.
The following steps are done in the laminar flow hood with the fluorescent lights turned off. The petri dish is removed from the shaker and the labeled cell suspension is transferred to a 15 mL conical tube and washed twice with HBSS as above. The cell pellet is resuspended in 12 mL HBSS and left wrapped in foil for 30 minutes at room temperature. The labeled cell suspension is aliquoted (100 μL/well) into a Dynex 96 well white opaque tissue culture plate. […] Selected compounds were tested for dose related activity. Test samples and activator (anti-CD3 mAb at final concentration of 4 μg/mL, PharMingen) are added manually (50 μL), such that the minimum time to acquire the first data point after stimulation is approximately 30 seconds. The calcium influx response to anti-CD3 mAb is measured as an “end point” assay. The entire plate is read in 100 seconds using a kinetic of 1 second per well.
The plate is read before the addition of anti-CD3 to monitor non-specific effect of samples/drugs. Fluorescence emission is measured at 510 nm with excitation alternating between 340 and 380 every second using an excitation/emission filter pair. Data from these dual wavelengths are represented as a ratio of 2 excitations wavelengths. This ratio is independent of intracellular dye and cell concentrations, enabling real comparison between experiments.
For orientation: A change in cytosolic calcium serves as a functional read-out for many receptors and channels.

The test system of data set [2] is sensitized Brown Norway rats. The data set is described as follows: Ovalbumin-induced accumulation of inflammatory cells in lung lavage fluid (allergen-induced lung inflammation). The settings on record: p.o. The data set is classed as in vivo, rat. The procedure: The ability of a compound to inhibit the allergen-induced accumulation of inflammatory cells such as eosinophils and neutrophils in the lavage fluid obtained from sensitized animals is indicative of that compound's anti-asthma activity. […] The test is conducted as follows.
Male Brown Norway rats are sensitized to ovalbumin by single intraperitoneal injection of 1 mg ovalbumin adsorbed to 100 mg […] (alum) in 1 ml sterile saline (saline control rats receive only sterile saline) on day 1, and allowed to sensitize until day 21. […] Rats are challenged with 0.5% ovalbumin in saline generated using a Devillbis nebulizer for 60 min on day 21.
Forty-eight hrs after challenge, animals are sacrificed with an overdose of intraperitoneally-delivered sodium pentobarbitol and the lungs are lavaged with cold 2×7 ml phosphate buffered saline. The recovered lavage fluid is placed on ice. The bronchoalveolar lavage fluid is centrifuged and the supernatant removed. The pellet is resuspended in phosphate buffered saline at 4° C. Cytospins are prepared and stained for differentiation and enumeration of cell types.
Test compound was administered in 300 μl corn oil (Tables 7 and 8) or water (Table 9), which were used as vehicles. Control animals received 300 μl corn oil or water alone, i.e., no drug. […] A negative value in Table 7, 8, or 9 indicates an exacerbation of the effect over the control animal.

Data set [3] is described as follows: Metabolic stability in human liver S9 fractions. The data set is classed as in vitro ADME. From the text: The therapeutic effectiveness of a test compound can be often directly related to its metabolic stability in vivo. The majority of known, marketed drugs are metabolized by a group of enzymes known as P450 enzymes. The S9 fraction of human liver contains all the P450 enzymes and also cytoplasmic enzymes that may be involved in the metabolism of new chemical entities. Metabolism in vitro using human S9 fractions is a standard assay to evaluate relative metabolic stability of new compounds. The test is performed as follows.
Reagents are thawed on ice and combined to make up a Master Mix as follows: Potassium phosphate (100 mM, pH 7), G6P (0.25 mM), G6PDH (2 U/ml), NADPH (1 mM), UDP (0.25 mM), APPS (0.25 mM), and S9 fraction (2 mg/ml). A volume of 498 μl of the Master mix is dispensed into each microcentrifuge tube. A volume of 2 μl of 2.5 mM test compound (final concentration of 10 μM) is dispensed into the center of the lid of the appropriate tube, and the lids gently closed to prevent mixing. Synchronous combination of test compound and master mix is achieved by simultaneous ten times inversion of the tubes, which are then incubated at 37° C. and shaken at 150 rpm for the appropriate incubation times. While incubation is in progress, all 0 time samples are mixed individually by three times inversion followed by the immediate addition of 500 μl ice cold acetonitrile with three times inversion to stop the reaction. Immediately after each 15 minutes and 30 minutes incubation is complete, ice cold acetonitrile is added to each tube and the tubes mixed by three times inversion. All sample tubes are incubated at −80° C. for a minimum of 15 minutes, thawed and remixed by inversion. Aliquots of 650 μl are transferred to Chromatographic Specialties micro-system spin filter system tubes (0.2 μm nylon membrane, C618505) and centrifuged at 13,000 rpm for 48 seconds. The sample filtrates are stored at −80° C.
Sample filtrates are analyzed on LCMS, and percent remaining after 15 and 30 minute incubation is calculated relative to the 0 minute incubation.
The metabolic stability of various compounds are summarized in Table 10 as the percent remaining after 15 or 30 minutes incubation with human liver S9 fractions.

Data set [4] can be described thus: Pharmacokinetic profile in the rat. The data set is classed as in vivo.
A short description of data set [5]: Pharmacokinetic profile in the monkey. The class given is in vivo.
A further data set can be described thus: physchem. The settings on record: water.
Setting [6] is: 5 mg/kg/day for 4 days, corn oil, lung lavage fluid, relative to control animals.
The mark [7] stands for this setting: 0.1 mg/kg, 4 days qd, water vehicle.
[8] abbreviates: 0.3 mg/kg, 4 days qd, water vehicle.
Setting [9] is: 1 mg/kg, 4 days qd, water vehicle.

In general, IC50 refers to the concentration that inhibits the measured activity by half. A word on the inhibition: it is the relative decrease from the control value, in per cent. As for `C/C=C1/CCC2C3C(CC[C@]12C)[C@@]1(C)CC[C@H](N)CC1[C@@H](O)[C@@H]3O` (some centres unmarked) [Compound 28], the IC50 in data set [1] worked out at 6.8 µM. In the data set with Jurkat clone E6.1 cells, the inhibition at 20 µM is 29%. The “% inhibition of eosinophils” value in data set [2] (setting [6]) turned out to be 85%. Moreover, the “remains unchanged after 15 and even 30 minutes incubation with human S9 fractions” value (from here on “remains unchanged … with human S9 fractions”) in data set [3] (human, s9, 0.5 h, 10 μM, pH 7) worked out at 100%. Besides, the “maximal concentration in plasma” value in data set [4] was “predictable and linear”; in data set [5], “predictable and linear”.

For the compound `CC(F)=C1CCC2C3C(CC[C@]12C)[C@@]1(C)CCC(N)CC1[C@@H](O)[C@@H]3O` (some centres unmarked) [Compound 64], the half-maximal inhibitory concentration (IC50) in data set [1] stood at 14.4 µM. Further, in the data set on Jurkat clone E6.1 cells, the inhibition at 20 µM was determined as 6.7%. Moreover, in data set [2] (setting [6]), the “% inhibition of eosinophils” value is given as 62%.

A word on the solubility: it is how much of the substance goes into solution per volume. Regarding `C/C=C1/CCC2C3C(CC[C@]12C)[C@@]1(C)CC[C@H](N)CC1[C@@H](O)[C@@H]3O` (some centres unmarked) [Compound 83], the IC50 in data set [1] was 7.7 µM. Moreover, the inhibition at 20 µM with Jurkat clone E6.1 cells worked out at 30.3%. Also, the “% inhibition of eosinophils” value in data set [2] (setting [6]) is 67%. The same compound had a solubility in the data set “physchem” of over 100 mg/mL.

Take `C=C1CCC2C3C(CC[C@]12C)[C@@]1(C)CC[C@H](N)CC1[C@@H](O)[C@@H]3O` (some centres unmarked) [Compound 89]: the “% inhibition of eosinophils” value in data set [2] (setting [6]) is 57%. The “remains unchanged … with human S9 fractions” value in data set [3] (human, s9, 0.5 h, 10 μM, pH 7) is 100%. Besides, the “maximal concentration in plasma” value was “predictable and linear” in data set [4]; “predictable and linear” in data set [5].

Take `CCC1CCC2C3C(CC[C@]12C)[C@@]1(C)CCC(N)CC1[C@@H](O)[C@@H]3O` (some centres unmarked) [Compound 96]: the IC50 in data set [1] was determined as 7.8 µM. The inhibition at 20 µM in the data set on Jurkat clone E6.1 cells turned out to be 47.9%. The “% inhibition of eosinophils” value in data set [2] (setting [6]) was −9%.

As for `CC1(C)CCC2=C1CCC1C2[C@@H](O)[C@H](O)C2C[C@@H](N)CC[C@]12C` (some centres unmarked) [Compound 139], the IC50 in data set [1] came to 10.3 µM. In addition, the inhibition at 20 µM in the data set on Jurkat clone E6.1 cells was determined as 26.3%. Further, the results for the “% inhibition of eosinophils” value in data set [2] (setting [7]), in data set [2] (setting [8]) and in data set [2] (setting [9]) were 46%, 41% and 42%, respectively. In addition, the “% inhibition of lymphocytes” value in data set [2] (setting [7]) is 19%; in data set [2] (setting [8]), 34%; in data set [2] (setting [9]), 56%. For the same compound, the “% inhibition of neutrophils” value in data set [2] (setting [7]) is listed as 42%; in data set [2] (setting [8]), 62%; in data set [2] (setting [9]) it was 63%. The “% remaining after 15 min” value in data set [3] (human, s9, 15 min, 10 μM, pH 7) is reported as 109 ± 26%. Moreover, in data set [3] (human, s9, 0.5 h, 10 μM, pH 7), the “remains unchanged … with human S9 fractions” value was found to be 100%. In addition, the “% remaining after 30 min” value in data set [3] (human, s9, 30 min, 10 μM, pH 7) is on record as 100 ± 10%.

Take `CCC1(C)CCC2=C1CCC1C2C(O)C(O)C2CC(N)CCC21C.Cl` (centres unmarked) [Compound 143]: the “remains unchanged … with human S9 fractions” value in data set [3] (15 and 30 minutes, human S9 fractions) stood at 100%.
